Like-named read-outs stand apart in the source and are kept apart here.
How the values were obtained:
[1] = system: Lucena 1 cells; assay: MTT cytotoxicity assay in Lucena 1; format: cell-based; details: 48 h
Description: (§1) Then 0.5 mg/mL MTT in PBS was added. After additional incubation for 4 h, the formazan crystals obtained were dissolved in DMSO and the absorbance at 595 nm was read on an iMark micro-plate reader (Bio-Rad, USA). IC50 values for cytotoxicity were then calculated as reported[50] using nonlinear regression by GraphPad Prism 7 (Graphpad Software, Inc., San Diego, CA, USA, www.graphpad.com).
(§2) The cells were incubated at 37 °C at 5% CO2 for 48 h and the same protocol described above was followed. IC50 values of Dox were then obtained.

[2] = target: T1, P-gp (Homo sapiens, UniProt P08183); details: 1 h
Description: (§3) The intracellular accumulation of the fluorescent probes, Dox and Rho123, was determined by monitoring its fluorescence intensity using flow cytometry (96-well plate format), as previously reported. The inhibition on the outward transport of these P-gp substrates results in an increased […] fluorescence intensity (MFI). […] Those compounds showing inhibition on P-gp at the maximum tested concentration were further evaluated at serial dilutions to determinate their MECs. […] The plates were then incubated in a 5% CO2 incubator for 1 h at 37 °C. Afterwards, 5 μM Dox was added to each well. The other fluorescent specific substrate of P-gp, Rho123, however, was added at 500 ng/mL to additionally measure the ability of the most promising compounds to block its efflux. Subsequently, cells from both assays were washed twice with cold PBS, and 15,000 events from each sample were analyzed to determine the cell-associated fluorescence. Dead cells were eliminated by means of forward- and side-scatter parameters. […] The blocking of the P-gp transport function was evaluated by the parameter FIR, calculated as the ratio of the MFI of Dox or Rho123 with the addition of the likely inhibitor to the MFI of Dox or Rho123 alone.

[3] = system: erythrocytes; assay: Erythrocyte hemolysis assay; format: cell-based; details: assayed at 2.5 to 20 µM
Description: (§4) PBMC were isolated from heparinized blood of healthy volunteers by density centrifugation using Ficoll-Hypaque separation. Ethical approval was provided by the Catholic University of Córdoba Research Ethics Board and informed consents were obtained from all donors. Briefly, 1 × 10^5 PBMC/well were incubated with the tested compounds at concentrations ranging from 2.5 to 20 µM in the presence of 10 μg/mL PHA, or with 1% DMSO as control. After 48 h incubation, MTT was added and the same protocol described above was followed to calculate the IC50 values. An erythrocyte hemolysis assay was carried out following previous procedures[8] with the compounds assayed at 2.5 to 20 µM.

[4] = system: K562 cells; assay: MTT cytotoxicity assay in K562; format: cell-based; details: 48 h
Description: as §1, §2

[5] = system: K562 cells; assay: Rhodamine 123 intracellular accumulation assay in K562; format: cell-based; details: 20 μM
Description: as §3

[6] = system: PBMC; assay: Cytotoxicity on peripheral blood mononuclear cells (MTT); format: cell-based; details: Homo sapiens, 48 h, PHA 10 μg/mL, read-out: inhibition on proliferation of PBMC
Description: as §4

[7] = system: Lucena 1 cells; assay: Doxorubicin resistance reversal assay; format: cell-based; details: for lowest co-administered concentration significantly increasing doxorubicin toxicity: p < 0.05
Description: as §2

[8] = target: T1, P-gp; details: human, 1 h; for FIR Rho123: 0.62 µM; for FIR Rho123 (fold more Rho123 than untreated cells): 20 µM
Description: The intracellular accumulation of the fluorescent probes, Dox and Rho123, was determined by monitoring its fluorescence intensity using flow cytometry (96-well plate format), as previously reported. The inhibition on the outward transport of these P-gp substrates results in an increased […] fluorescence intensity (MFI). […] The plates were then incubated in a 5% CO2 incubator for 1 h at 37 °C. Afterwards, 5 μM Dox was added to each well. The other fluorescent specific substrate of P-gp, Rho123, however, was added at 500 ng/mL to additionally measure the ability of the most promising compounds to block its efflux. Subsequently, cells from both assays were washed twice with cold PBS, and 15,000 events from each sample were analyzed to determine the cell-associated fluorescence. Dead cells were eliminated by means of forward- and side-scatter parameters. […] The blocking of the P-gp transport function was evaluated by the parameter FIR, calculated as the ratio of the MFI of Dox or Rho123 with the addition of the likely inhibitor to the MFI of Dox or Rho123 alone.

[9] = system: K562 cells; assay: Doxorubicin intracellular accumulation assay (flow cytometry) in K562; format: cell-based; design: key: MFI with inhibitor / MFI of Dox alone; details: compound 20 µM; 5 μM Dox
Description: as §3

[10] = system: SphK1; details: previously found; read-out: IC50 against SphK1; cited from earlier work
[11] = system: SphK2; details: previously found; read-out: IC50 against SphK2; cited from earlier work
[12] = compound 1.25 µM, FR = IC50 Dox/IC50 Dox with compound, 48 h

T1 sequence (P08183 whole entry): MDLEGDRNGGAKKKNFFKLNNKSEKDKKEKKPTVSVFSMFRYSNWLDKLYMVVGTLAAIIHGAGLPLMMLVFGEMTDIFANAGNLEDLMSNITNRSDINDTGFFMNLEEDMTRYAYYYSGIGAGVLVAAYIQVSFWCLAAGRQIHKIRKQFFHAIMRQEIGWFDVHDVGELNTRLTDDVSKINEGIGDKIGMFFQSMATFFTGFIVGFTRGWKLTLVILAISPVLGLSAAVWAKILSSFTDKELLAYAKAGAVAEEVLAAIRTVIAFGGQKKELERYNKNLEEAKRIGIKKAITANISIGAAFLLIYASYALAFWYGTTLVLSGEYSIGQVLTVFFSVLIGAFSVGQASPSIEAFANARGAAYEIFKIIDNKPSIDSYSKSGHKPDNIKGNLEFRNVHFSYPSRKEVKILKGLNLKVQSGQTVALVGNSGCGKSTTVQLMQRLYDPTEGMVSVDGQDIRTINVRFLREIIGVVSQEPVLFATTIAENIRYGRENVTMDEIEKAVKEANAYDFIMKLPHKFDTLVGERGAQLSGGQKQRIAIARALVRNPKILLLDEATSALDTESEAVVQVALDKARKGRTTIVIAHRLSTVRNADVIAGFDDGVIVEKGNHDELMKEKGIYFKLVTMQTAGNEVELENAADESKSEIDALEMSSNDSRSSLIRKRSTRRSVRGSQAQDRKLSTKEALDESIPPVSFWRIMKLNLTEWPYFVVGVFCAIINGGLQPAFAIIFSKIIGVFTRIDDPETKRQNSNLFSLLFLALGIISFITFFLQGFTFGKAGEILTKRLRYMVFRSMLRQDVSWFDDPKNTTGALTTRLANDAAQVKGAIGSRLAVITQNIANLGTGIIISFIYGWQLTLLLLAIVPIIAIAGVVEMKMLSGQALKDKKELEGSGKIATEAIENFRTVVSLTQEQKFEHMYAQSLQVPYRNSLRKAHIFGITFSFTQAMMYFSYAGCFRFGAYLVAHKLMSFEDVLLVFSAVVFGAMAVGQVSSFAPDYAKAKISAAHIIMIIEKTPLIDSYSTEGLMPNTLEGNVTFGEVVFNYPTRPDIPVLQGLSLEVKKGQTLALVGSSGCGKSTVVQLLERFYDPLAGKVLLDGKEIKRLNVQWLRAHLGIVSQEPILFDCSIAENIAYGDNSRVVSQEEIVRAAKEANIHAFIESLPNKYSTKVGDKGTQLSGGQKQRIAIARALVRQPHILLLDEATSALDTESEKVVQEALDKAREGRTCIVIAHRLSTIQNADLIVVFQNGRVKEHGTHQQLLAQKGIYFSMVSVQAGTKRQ

Structure (SMILES)	IC50 (cytotoxicity) against Lucena 1 [1]	minimum effective concentration (MEC), Dox accumulation [2] [µM]	FIR Lucena 1 ([2]; 0.16 µM)	FIR Lucena 1 ([2]; 0.31 µM)	FIR Lucena 1 ([2]; 0.62 µM)	FIR Lucena 1 ([2]; 1.25 µM)	FIR Lucena 1 ([2]; 2.5 µM)	FIR Lucena 1 ([2]; 5 µM)	FIR Lucena 1 ([2]; 10 µM)	FIR Lucena 1 ([2]; 20 µM)	concentrations at which the erythrocyte membrane was not altered [3]	IC50 (cytotoxicity) against K562 [4]	Rho123 accumulation in K562 (result in words) [5]	inhibition at 20 µM [6] [%]	fold reversal (FR) of Dox resistance [7, 12]	lowest co-administered concentration significantly increasing doxorubicin toxicity [7] [µM]	minimum effective concentration (MEC), Rho123 accumulation [8] [µM]	FIR Rho123 [8]	FIR Rho123 (fold more Rho123 than untreated cells) [8]	FIR K562 [9]	also measured
COc1cc2cc(CNc3ccc(Nc4nccc(-c5ccc6ccccc6c5)n4)cc3)c(=O)[nH]c2cc1OC [Compound 5c]	non-toxic	0.31	0.99 ± 0.07	1.12 ± 0.02	1.29 ± 0.08	1.22 ± 0.03	1.26 ± 0.01	1.23 ± 0.05	1.24 ± 0.10	1.42 ± 0.09	lower than 10 µM	non-toxic	no increase	21	5.16 ± 0.60	0.04	0.62	1.36 ± 0.04	2.72 ± 0.10	0.95 ± 0.02	fold reversal (FR) of Dox resistance ([7]; compound 40 nM): 1.30 ± 0.05
COc1ccc2[nH]c(=O)c(CN3CCN(c4nccc(-c5ccc6ccccc6c5)n4)CC3)cc2c1 [Compound 7b]	non-toxic	0.31	1.04 ± 0.02	1.10 ± 0.01	1.21 ± 0.01	1.18 ± 0.03	1.26 ± 0.04	1.26 ± 0.04	1.25 ± 0.04	1.43 ± 0.10	< 20 µM	non-toxic	no increase	12	6.90 ± 2.84	0.08	0.62	1.37 ± 0.06	3.05 ± 0.16	0.88 ± 0.02	IC50 [10]: > 650 µM; fold reversal (FR) of Dox resistance ([7]; compound 80 nM): 1.51 ± 0.23; IC50 [11]: > 650 µM

From article PMC8376931, “Structure activity relationships and the binding mode of quinolinone-pyrimidine hybrids as reversal agents of multidrug resistance mediated by P-gp” (Scientific Reports, 2021)
